These results are taken from the supplement of paper PMC10307832.

Holding throughout (test): relative viability (nuclei count vs DMSO), 5 days (fraction); higher = more cells survive
Compound in assay [1]: CC(C)=CC[C@@H](O)C1=CC(=O)c2c(O)ccc(O)c2C1=O [Shikonin] + Nc1nc2[nH]cc(CCc3ccc(C(=O)N[C@@H](CCC(=O)O)C(=O)O)cc3)c2c(=O)[nH]1 [Pemetrexed] (partner 0.2 µM)
Summed up: (§1)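 Lung cancer cell lines, seeded in 1536-well plates, were treated the following day by pin tool with a single drug or with five library-drug doses (not always all listed) in √10 steps on top of a fixed anchor-drug dose. Cells were fixed and nuclei stained in one step after 5 days, and nuclei were counted. Relative viability is the nuclei count for treated wells divided by that for vehicle wells, reported as medians of duplicate plates.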

Compound in assay [2]: CC(C)N(CCCNC(=O)Nc1ccc(C(C)(C)C)cc1)C[C@H]1O[C@@H](n2ccc3c(N)ncnc32)[C@H](O)[C@@H]1O + O=C(CCCCCCC(=O)Nc1ccccc1)NO [Vorinostat] (partner 1 µM)
Summed up:
as §1

Compound in assay [3]: CC(C)N(CCCNC(=O)Nc1ccc(C(C)(C)C)cc1)C[C@H]1O[C@@H](n2ccc3c(N)ncnc32)[C@H](O)[C@@H]1O + Cc1nc(NC(=O)N2CCC[C@H]2C(N)=O)sc1-c1ccnc(C(C)(C)C(F)(F)F)c1 [Alpelisib] (partner 2 µM)
In a few lines:
as §1

Compound in assay [4]: CC(C)=CC[C@@H](O)C1=CC(=O)c2c(O)ccc(O)c2C1=O [Shikonin] + C[C@@H](Oc1cc(-c2cnn(C3CCNCC3)c2)cnc1N)c1c(Cl)ccc(F)c1Cl [Crizotinib] (partner 1 µM)
Summed up:
as §1

UMC-11: the relative viability in assay [1] (first compound 0.01 µM) stood at 0.813; in assay [1] (first compound 0.1 µM), 0.942; in assay [1] (first compound 0.3162 µM), 0.836; in assay [1] (first compound 1 µM) it was 0.793; in assay [2] (first compound 0.08 µM), 0.357; in assay [2] (first compound 0.253 µM), 0.419. Also, the relative viability in assay [2] (first compound 0.8 µM) worked out at 0.431; in assay [2] (first compound 2.53 µM), 0.35; in assay [2] (first compound 8 µM), 0.386; in assay [3] (first compound 0.08 µM) it was 0.957; in assay [3] (first compound 0.253 µM) it was 0.891; in assay [3] (first compound 0.8 µM), 1.09. Further, the relative viability in assay [3] (first compound 2.53 µM) is 0.958; in assay [3] (first compound 8 µM), 0.964; in assay [4] (first compound 0.01 µM) it was 0.745; in assay [4] (first compound 0.1 µM), 0.559; in assay [4] (first compound 0.3162 µM), 0.658; in assay [4] (first compound 1 µM), 0.633.
